# According to the NIST ThermoML archive (doi:10.1016/j.fluid.2006.12.011):
# Numbers after ± are expanded uncertainties.
# Key:
# [1] = Liquid, Vibrating tube method
# [2] = xn = mol fraction of the nth substance listed; details: Liquid, Vibrating tube method, x2 = 0
structure (smiles),measurement,setting,value
C1CC[C@H]2CCCC[C@H]2C1 [cis-decahydronaphthalene],mass density,"[1]; 303.15 K, 100 kPa",888.5 ± 1.2 kg/m3
same,mass density,"[1]; 303.15 K, 5000 kPa",891.4 ± 1.2 kg/m3
same,mass density,"[1]; 303.15 K, 10000 kPa",894.4 ± 1.2 kg/m3
same,mass density,"[1]; 303.15 K, 15000 kPa",897.3 ± 1.2 kg/m3
same,mass density,"[1]; 303.15 K, 20000 kPa",899.9 ± 1.2 kg/m3
same,mass density,"[1]; 303.15 K, 25000 kPa",902.8 ± 1.3 kg/m3
same,mass density,"[1]; 303.15 K, 30000 kPa",905.5 ± 1.3 kg/m3
same,mass density,"[1]; 303.15 K, 35000 kPa",908 ± 1.3 kg/m3
same,mass density,"[1]; 303.15 K, 40000 kPa",910.6 ± 1.3 kg/m3
same,mass density,"[1]; 303.15 K, 45000 kPa",913 ± 1.3 kg/m3
same,mass density,"[1]; 303.15 K, 50000 kPa",915.3 ± 1.3 kg/m3
same,mass density,"[1]; 303.15 K, 55000 kPa",917.6 ± 1.3 kg/m3
same,mass density,"[1]; 303.15 K, 60000 kPa",919.9 ± 1.3 kg/m3
same,mass density,"[1]; 303.15 K, 65000 kPa",922.1 ± 1.3 kg/m3
same,mass density,"[1]; 323.15 K, 100 kPa",873.2 ± 1.2 kg/m3
same,mass density,"[1]; 323.15 K, 5000 kPa",876.5 ± 1.2 kg/m3
same,mass density,"[1]; 323.15 K, 10000 kPa",879.8 ± 1.2 kg/m3
same,mass density,"[1]; 323.15 K, 15000 kPa",883 ± 1.2 kg/m3
same,mass density,"[1]; 323.15 K, 20000 kPa",886 ± 1.2 kg/m3
same,mass density,"[1]; 323.15 K, 25000 kPa",889 ± 1.3 kg/m3
same,mass density,"[1]; 323.15 K, 30000 kPa",891.8 ± 1.3 kg/m3
same,mass density,"[1]; 323.15 K, 35000 kPa",894.6 ± 1.3 kg/m3
same,mass density,"[1]; 323.15 K, 40000 kPa",897.3 ± 1.3 kg/m3
same,mass density,"[1]; 323.15 K, 45000 kPa",899.9 ± 1.3 kg/m3
same,mass density,"[1]; 323.15 K, 50000 kPa",902.4 ± 1.3 kg/m3
same,mass density,"[1]; 323.15 K, 55000 kPa",904.8 ± 1.3 kg/m3
same,mass density,"[1]; 323.15 K, 60000 kPa",907.3 ± 1.3 kg/m3
same,mass density,"[1]; 323.15 K, 65000 kPa",909.6 ± 1.3 kg/m3
same,mass density,"[1]; 343.15 K, 100 kPa",857.8 ± 1.2 kg/m3
same,mass density,"[1]; 343.15 K, 5000 kPa",861.5 ± 1.2 kg/m3
same,mass density,"[1]; 343.15 K, 10000 kPa",865.1 ± 1.2 kg/m3
same,mass density,"[1]; 343.15 K, 15000 kPa",868.6 ± 1.2 kg/m3
same,mass density,"[1]; 343.15 K, 20000 kPa",871.9 ± 1.2 kg/m3
same,mass density,"[1]; 343.15 K, 25000 kPa",875.1 ± 1.3 kg/m3
same,mass density,"[1]; 343.15 K, 30000 kPa",878.3 ± 1.3 kg/m3
same,mass density,"[1]; 343.15 K, 35000 kPa",881.2 ± 1.3 kg/m3
same,mass density,"[1]; 343.15 K, 40000 kPa",884.1 ± 1.3 kg/m3
same,mass density,"[1]; 343.15 K, 45000 kPa",887 ± 1.3 kg/m3
same,mass density,"[1]; 343.15 K, 50000 kPa",889.7 ± 1.3 kg/m3
same,mass density,"[1]; 343.15 K, 55000 kPa",892.3 ± 1.3 kg/m3
same,mass density,"[1]; 343.15 K, 60000 kPa",894.9 ± 1.3 kg/m3
same,mass density,"[1]; 343.15 K, 65000 kPa",897.4 ± 1.3 kg/m3
C1CC[C@H]2CCCC[C@@H]2C1 [trans-decahydronaphthalene],mass density,"[1]; 303.15 K, 100 kPa",862.1 ± 1 kg/m3
same,mass density,"[1]; 303.15 K, 5000 kPa",865.4 ± 1 kg/m3
same,mass density,"[1]; 303.15 K, 10000 kPa",868.7 ± 1 kg/m3
same,mass density,"[1]; 303.15 K, 15000 kPa",871.6 ± 1 kg/m3
same,mass density,"[1]; 303.15 K, 20000 kPa",874.6 ± 1 kg/m3
same,mass density,"[1]; 303.15 K, 25000 kPa",877.6 ± 1.1 kg/m3
same,mass density,"[1]; 303.15 K, 30000 kPa",880.3 ± 1.1 kg/m3
same,mass density,"[1]; 303.15 K, 35000 kPa",882.9 ± 1.1 kg/m3
same,mass density,"[1]; 303.15 K, 40000 kPa",885.6 ± 1.1 kg/m3
same,mass density,"[1]; 303.15 K, 45000 kPa",888.2 ± 1.1 kg/m3
same,mass density,"[1]; 303.15 K, 50000 kPa",890.6 ± 1.1 kg/m3
same,mass density,"[1]; 303.15 K, 55000 kPa",893 ± 1.1 kg/m3
same,mass density,"[1]; 303.15 K, 60000 kPa",895.3 ± 1.1 kg/m3
same,mass density,"[1]; 303.15 K, 65000 kPa",897.6 ± 1.1 kg/m3
same,mass density,"[1]; 323.15 K, 100 kPa",847.1 ± 1 kg/m3
same,mass density,"[1]; 323.15 K, 5000 kPa",850.9 ± 1 kg/m3
same,mass density,"[1]; 323.15 K, 10000 kPa",854.4 ± 1 kg/m3
same,mass density,"[1]; 323.15 K, 15000 kPa",857.8 ± 1 kg/m3
same,mass density,"[1]; 323.15 K, 20000 kPa",861 ± 1 kg/m3
same,mass density,"[1]; 323.15 K, 25000 kPa",864.1 ± 1.1 kg/m3
same,mass density,"[1]; 323.15 K, 30000 kPa",867.1 ± 1.1 kg/m3
same,mass density,"[1]; 323.15 K, 35000 kPa",870 ± 1.1 kg/m3
same,mass density,"[1]; 323.15 K, 40000 kPa",872.8 ± 1.1 kg/m3
same,mass density,"[1]; 323.15 K, 45000 kPa",875.6 ± 1.1 kg/m3
same,mass density,"[1]; 323.15 K, 50000 kPa",878.3 ± 1.1 kg/m3
same,mass density,"[1]; 323.15 K, 55000 kPa",880.8 ± 1.1 kg/m3
same,mass density,"[1]; 323.15 K, 60000 kPa",883.4 ± 1.1 kg/m3
same,mass density,"[1]; 323.15 K, 65000 kPa",885.8 ± 1.1 kg/m3
same,mass density,"[1]; 343.15 K, 100 kPa",832 ± 1 kg/m3
same,mass density,"[1]; 343.15 K, 5000 kPa",836.2 ± 1 kg/m3
same,mass density,"[1]; 343.15 K, 10000 kPa",840.1 ± 1 kg/m3
same,mass density,"[1]; 343.15 K, 15000 kPa",843.9 ± 1 kg/m3
same,mass density,"[1]; 343.15 K, 20000 kPa",847.4 ± 1.1 kg/m3
same,mass density,"[1]; 343.15 K, 25000 kPa",850.8 ± 1.1 kg/m3
same,mass density,"[1]; 343.15 K, 30000 kPa",854.1 ± 1.1 kg/m3
same,mass density,"[1]; 343.15 K, 35000 kPa",857.2 ± 1.1 kg/m3
same,mass density,"[1]; 343.15 K, 40000 kPa",860.3 ± 1.1 kg/m3
same,mass density,"[1]; 343.15 K, 45000 kPa",863.2 ± 1.1 kg/m3
same,mass density,"[1]; 343.15 K, 50000 kPa",866.1 ± 1.1 kg/m3
same,mass density,"[1]; 343.15 K, 55000 kPa",868.8 ± 1.1 kg/m3
same,mass density,"[1]; 343.15 K, 60000 kPa",871.5 ± 1.1 kg/m3
same,mass density,"[1]; 343.15 K, 65000 kPa",874.2 ± 1.1 kg/m3
C1CC[C@H]2CCCC[C@@H]2C1 [trans-decahydronaphthalene] + C1CC[C@H]2CCCC[C@H]2C1,mass density,"[2]; 303.15 K, 100 kPa",862.1 ± 1 kg/m3
same,mass density,"[2]; 303.15 K, 5000 kPa",865.4 ± 1 kg/m3
same,mass density,"[2]; 303.15 K, 10000 kPa",868.7 ± 1 kg/m3
same,mass density,"[2]; 303.15 K, 15000 kPa",871.6 ± 1 kg/m3
same,mass density,"[2]; 303.15 K, 20000 kPa",874.6 ± 1 kg/m3
same,mass density,"[2]; 303.15 K, 25000 kPa",877.6 ± 1.1 kg/m3
same,mass density,"[2]; 303.15 K, 30000 kPa",880.3 ± 1.1 kg/m3
same,mass density,"[2]; 303.15 K, 35000 kPa",882.9 ± 1.1 kg/m3
same,mass density,"[2]; 303.15 K, 40000 kPa",885.6 ± 1.1 kg/m3
same,mass density,"[2]; 303.15 K, 45000 kPa",888.2 ± 1.1 kg/m3
same,mass density,"[2]; 303.15 K, 50000 kPa",890.6 ± 1.1 kg/m3
same,mass density,"[2]; 303.15 K, 55000 kPa",893 ± 1.1 kg/m3
same,mass density,"[2]; 303.15 K, 60000 kPa",895.3 ± 1.1 kg/m3
same,mass density,"[2]; 303.15 K, 65000 kPa",897.6 ± 1.1 kg/m3
same,mass density,"[2]; 323.15 K, 100 kPa",847.1 ± 1 kg/m3
same,mass density,"[2]; 323.15 K, 5000 kPa",850.9 ± 1 kg/m3
same,mass density,"[2]; 323.15 K, 10000 kPa",854.4 ± 1 kg/m3
same,mass density,"[2]; 323.15 K, 15000 kPa",857.8 ± 1 kg/m3
same,mass density,"[2]; 323.15 K, 20000 kPa",861 ± 1 kg/m3
same,mass density,"[2]; 323.15 K, 25000 kPa",864.1 ± 1.1 kg/m3
same,mass density,"[2]; 323.15 K, 30000 kPa",867.1 ± 1.1 kg/m3
same,mass density,"[2]; 323.15 K, 35000 kPa",870 ± 1.1 kg/m3
same,mass density,"[2]; 323.15 K, 40000 kPa",872.8 ± 1.1 kg/m3
same,mass density,"[2]; 323.15 K, 45000 kPa",875.6 ± 1.1 kg/m3
same,mass density,"[2]; 323.15 K, 50000 kPa",878.3 ± 1.1 kg/m3
same,mass density,"[2]; 323.15 K, 55000 kPa",880.8 ± 1.1 kg/m3
same,mass density,"[2]; 323.15 K, 60000 kPa",883.4 ± 1.1 kg/m3
same,mass density,"[2]; 323.15 K, 65000 kPa",885.8 ± 1.1 kg/m3
same,mass density,"[2]; 343.15 K, 100 kPa",832 ± 1 kg/m3
same,mass density,"[2]; 343.15 K, 5000 kPa",836.2 ± 1 kg/m3
same,mass density,"[2]; 343.15 K, 10000 kPa",840.1 ± 1 kg/m3
same,mass density,"[2]; 343.15 K, 15000 kPa",843.9 ± 1 kg/m3
same,mass density,"[2]; 343.15 K, 20000 kPa",847.4 ± 1.1 kg/m3
same,mass density,"[2]; 343.15 K, 25000 kPa",850.8 ± 1.1 kg/m3
same,mass density,"[2]; 343.15 K, 30000 kPa",854.1 ± 1.1 kg/m3
same,mass density,"[2]; 343.15 K, 35000 kPa",857.2 ± 1.1 kg/m3
same,mass density,"[2]; 343.15 K, 40000 kPa",860.3 ± 1.1 kg/m3
same,mass density,"[2]; 343.15 K, 45000 kPa",863.2 ± 1.1 kg/m3
same,mass density,"[2]; 343.15 K, 50000 kPa",866.1 ± 1.1 kg/m3
same,mass density,"[2]; 343.15 K, 55000 kPa",868.8 ± 1.1 kg/m3
same,mass density,"[2]; 343.15 K, 60000 kPa",871.5 ± 1.1 kg/m3
same,mass density,"[2]; 343.15 K, 65000 kPa",874.2 ± 1.1 kg/m3
